A value given as a limit tells only on which side of the number the result lay.

In this test the target is T1, HDAC6 (Homo sapiens, UniProt Q9UBN7).
T1 construct: Full length human recombinant HDAC6 protein was expressed in baculoviral system; made in house; host or cells: baculoviral system
T1 sequence (Q9UBN7 1-1215): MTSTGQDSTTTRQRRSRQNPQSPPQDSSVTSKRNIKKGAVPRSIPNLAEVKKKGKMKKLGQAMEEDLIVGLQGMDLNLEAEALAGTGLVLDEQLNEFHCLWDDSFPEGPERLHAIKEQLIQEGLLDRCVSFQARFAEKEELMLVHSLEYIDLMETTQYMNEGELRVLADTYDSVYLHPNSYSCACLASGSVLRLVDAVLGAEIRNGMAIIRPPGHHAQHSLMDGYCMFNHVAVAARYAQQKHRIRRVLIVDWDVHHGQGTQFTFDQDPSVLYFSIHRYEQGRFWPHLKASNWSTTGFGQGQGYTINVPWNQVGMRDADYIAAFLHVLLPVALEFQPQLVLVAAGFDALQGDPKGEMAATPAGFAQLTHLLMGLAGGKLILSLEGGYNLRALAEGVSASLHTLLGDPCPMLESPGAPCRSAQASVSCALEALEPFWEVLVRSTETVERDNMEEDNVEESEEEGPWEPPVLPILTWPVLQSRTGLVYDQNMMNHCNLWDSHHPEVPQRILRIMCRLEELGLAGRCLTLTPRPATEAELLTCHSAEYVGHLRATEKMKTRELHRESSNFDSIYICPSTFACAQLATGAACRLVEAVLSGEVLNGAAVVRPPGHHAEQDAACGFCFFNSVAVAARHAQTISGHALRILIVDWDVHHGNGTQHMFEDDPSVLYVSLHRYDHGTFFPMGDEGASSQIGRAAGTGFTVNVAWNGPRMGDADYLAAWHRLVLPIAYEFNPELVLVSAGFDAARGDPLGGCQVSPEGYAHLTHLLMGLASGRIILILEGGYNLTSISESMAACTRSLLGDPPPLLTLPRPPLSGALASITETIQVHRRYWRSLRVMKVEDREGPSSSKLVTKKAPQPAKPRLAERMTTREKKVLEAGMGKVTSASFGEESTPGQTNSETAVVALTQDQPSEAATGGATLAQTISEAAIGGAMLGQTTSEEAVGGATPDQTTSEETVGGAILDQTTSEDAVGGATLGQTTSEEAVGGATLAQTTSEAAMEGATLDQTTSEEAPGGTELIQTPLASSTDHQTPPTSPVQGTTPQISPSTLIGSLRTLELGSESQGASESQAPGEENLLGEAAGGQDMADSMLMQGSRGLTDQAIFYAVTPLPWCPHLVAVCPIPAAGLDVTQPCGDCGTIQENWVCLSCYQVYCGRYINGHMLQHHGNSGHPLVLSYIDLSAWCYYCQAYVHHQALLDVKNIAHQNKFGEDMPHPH
Kind of test: In vitro Histone Deacetylase Assay (enzymatic HDAC6 electrophoretic mobility shift assay). The following applies: full length human recombinant HDAC6, 1 nM enzyme, 2 μM peptide substrate RHKK(Ac)-NH2, 25° C.; read-out: HDAC6 activity range. Format: biochemical. The procedure, abridged: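 Deacetylation was read by microfluidic mobility shift as product/(substrate+product) peak ratio and normalised to 0% and 100% inhibition controls. Reactions used 1 nM baculovirus-expressed full-length human HDAC6 and 2 μM labelled RHKK(Ac)-NH2 in pH 7.5 HEPES buffer with 1% DMSO at 25 °C. IC50 was from 4-parameter fits of 12 concentrations.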
In general terms: Mobility shift assays separate free from complexed probe on a gel.
Consider `Cc1ccncc1N1CC[C@@]2(CCc3cc(C(=O)NO)ccc3C2)C1=O` [Compound I-137, (S)-N-hydroxy-1′-(4-methylpyridin-3-yl)-2′-oxo-3,4-dihydro-1H-spiro[naphthalene-2,3′-pyrrolidine]-6-carboxamide], for which the IC50 was not above 0.1 µM.

With `O=C(NO)c1ccc2c(c1)CC[C@@]1(CCN(c3cncc(Cl)c3)C1=O)C2` [Compound I-138, (S)-1′-(5-chloropyridin-3-yl)-N-hydroxy-2′-oxo-3,4-dihydro-1H-spiro[naphthalene-2,3′-pyrrolidine]-6-carboxamide], the IC50 is not above 0.1 µM.

On to `O=C(NO)c1ccc2c(c1)CC[C@]1(CCN(c3cncc(Cl)c3)C1=O)C2` [Compound I-139, (R)-1′-(5-chloropyridin-3-yl)-N-hydroxy-2′-oxo-3,4-dihydro-1H-spiro[naphthalene-2,3′-pyrrolidine]-6-carboxamide], for which the IC50 was not above 0.1 µM. As to `O=C(NO)c1ccc2c(c1)CC[C@]1(CCN(c3ccncc3Cl)C1=O)C2` [Compound I-140, (R)-1′-(3-chloropyridin-4-yl)-N-hydroxy-2′-oxo-3,4-dihydro-1H-spiro[naphthalene-2,3′-pyrrolidine]-6-carboxamide], the IC50 was not above 0.1 µM. Regarding `O=C(NO)c1ccc2c(c1)CC[C@@]1(CCN(c3ccncc3Cl)C1=O)C2` [Compound I-141, (S)-1′-(3-chloropyridin-4-yl)-N-hydroxy-2′-oxo-3,4-dihydro-1H-spiro[naphthalene-2,3′-pyrrolidine]-6-carboxamide], the IC50 was not above 0.1 µM. As to `COc1ccncc1N1CC[C@@]2(CCc3cc(C(=O)NO)ccc3C2)C1=O` [Compound I-142, (S)-N-hydroxy-1′-(4-methoxypyridin-3-yl)-2′-oxo-3,4-dihydro-1H-spiro[naphthalene-2,3′-pyrrolidine]-6-carboxamide], the IC50 was not above 0.1 µM. The figure for `COc1cncc(N2CC[C@]3(CCc4cc(C(=O)NO)ccc4C3)C2=O)c1` [Compound I-143, (R)-N-hydroxy-1′-(5-methoxypyridin-3-yl)-2′-oxo-3,4-dihydro-1H-spiro[naphthalene-2,3′-pyrrolidine]-6-carboxamide] is not above 0.1 µM. The figure for `COc1cncc(N2CC[C@@]3(CCc4cc(C(=O)NO)ccc4C3)C2=O)c1` [Compound I-144, (2S)-N-hydroxy-1′-(5-methoxypyridin-3-yl)-2′-oxo-3,4-dihydro-1H-spiro[naphthalene-2,3′-pyrrolidine]-6-carboxamide] is not above 0.1 µM; for `COc1ncccc1N1CC[C@]2(CCc3cc(C(=O)NO)ccc3C2)C1=O` [Compound I-145, (R)-N-hydroxy-1′-(2-methoxypyridin-3-yl)-2′-oxo-3,4-dihydro-1H-spiro[naphthalene-2,3′-pyrrolidine]-6-carboxamide] it is not above 0.1 µM.

In the case of `COc1ncccc1N1CC[C@@]2(CCc3cc(C(=O)NO)ccc3C2)C1=O` [Compound I-146, (S)-N-hydroxy-1′-(2-methoxypyridin-3-yl)-2′-oxo-3,4-dihydro-1H-spiro[naphthalene-2,3′-pyrrolidine]-6-carboxamide], the IC50 was not above 0.1 µM.

Regarding `COc1ccc(F)c(N2CC[C@@]3(CCc4cc(C(=O)NO)ccc4C3)C2=O)c1` [Compound I-147, (2S)-1′-(2-fluoro-5-methoxyphenyl)-N-hydroxy-2′-oxo-3,4-dihydro-1H-spiro[naphthalene-2,3′-pyrrolidine]-6-carboxamide], the IC50 is not above 0.1 µM. Under `COc1cc(F)cc(N2CC[C@@]3(CCc4cc(C(=O)NO)ccc4C3)C2=O)c1` [Compound I-148, (2S)-1′-(3-fluoro-5-methoxyphenyl)-N-hydroxy-2′-oxo-3,4-dihydro-1H-spiro[naphthalene-2,3′-pyrrolidine]-6-carboxamide] stands not above 0.1 µM. The figure for `COc1cc(N2CC[C@]3(CCc4cc(C(=O)NO)ccc4C3)C2=O)ccn1` [Compound I-149, (R)-N-hydroxy-1′-(2-methoxypyridin-4-yl)-2′-oxo-3,4-dihydro-1H-spiro[naphthalene-2,3′-pyrrolidine]-6-carboxamide] is not above 0.1 µM; for `COc1cc(N2CC[C@@]3(CCc4cc(C(=O)NO)ccc4C3)C2=O)ccn1` [Compound I-150, (S)-N-hydroxy-1′-(2-methoxypyridin-4-yl)-2′-oxo-3,4-dihydro-1H-spiro[naphthalene-2,3′-pyrrolidine]-6-carboxamide] it is not above 0.1 µM. On to `CN(C)c1ccc(N2CC[C@]3(CCc4cc(C(=O)NO)ccc4C3)C2=O)cn1` [Compound I-151, (2R)-1′-[6-(dimethylamino)pyridin-3-yl]-N-hydroxy-2′-oxo-3,4-dihydro-1H-spiro[naphthalene-2,3′-pyrrolidine]-6-carboxamide], for which the IC50 is not above 0.1 µM.

Consider `CN(C)c1ccc(N2CC[C@@]3(CCc4cc(C(=O)NO)ccc4C3)C2=O)cn1` [Compound I-152, (2S)-1′-[6-(dimethylamino)pyridin-3-yl]-N-hydroxy-2′-oxo-3,4-dihydro-1H-spiro[naphthalene-2,3′-pyrrolidine]-6-carboxamide], for which the IC50 was 0.1 to 0.5 µM.

As for `O=C(NO)c1ccc2c(c1)CC[C@@]1(CCN(c3cncc(F)c3)C1=O)C2` [Compound I-153, (2S)-1′-(5-fluoropyridin-3-yl)-N-hydroxy-2′-oxo-3,4-dihydro-1H-spiro[naphthalene-2,3′-pyrrolidine]-6-carboxamide], the IC50 was not above 0.1 µM. Regarding `O=C(NO)c1ccc2c(c1)CC[C@@]1(CCN(c3ccc(F)cc3)C1=O)C2` [Compound I-154, (S)-1′-(4-fluorophenyl)-N-hydroxy-2′-oxo-3,4-dihydro-1H-spiro[naphthalene-2,3′-pyrrolidine]-6-carboxamide], the IC50 was not above 0.1 µM.

`O=C(NO)c1ccc2c(c1)CC[C@@]1(CCN(c3ccc(F)c(F)c3)C1=O)C2` [Compound I-155, (S)-1′-(3,4-difluorophenyl)-N-hydroxy-2′-oxo-3,4-dihydro-1H-spiro[naphthalene-2,3′-pyrrolidine]-6-carboxamide]: the IC50 is not above 0.1 µM. The figure for `O=C(NO)c1ccc2c(c1)CC[C@@]1(CCN(c3cccc(F)c3F)C1=O)C2` [Compound I-156, (S)-1′-(2,3-difluorophenyl)-N-hydroxy-2′-oxo-3,4-dihydro-1H-spiro[naphthalene-2,3′-pyrrolidine]-6-carboxamide] is not above 0.1 µM; for `O=C(NO)c1ccc2c(c1)CC[C@@]1(CCN(c3ccccc3F)C1=O)C2` [Compound I-157, (S)-1′-(2-fluorophenyl)-N-hydroxy-2′-oxo-3,4-dihydro-1H-spiro[naphthalene-2,3′-pyrrolidine]-6-carboxamide] it is not above 0.1 µM; for `COc1cccc(N2CC[C@@]3(CCc4cc(C(=O)NO)ccc4C3)C2=O)c1` [Compound I-158, (S)-N-hydroxy-1′-(3-methoxyphenyl)-2′-oxo-3,4-dihydro-1H-spiro[naphthalene-2,3′-pyrrolidine]-6-carboxamide] it is not above 0.1 µM.

As for `CC(C)CN1CC[C@]2(CCc3cc(C(=O)NO)ccc3C2)C1=O` [Compound I-159, (R)-N-hydroxy-1′-isobutyl-2′-oxo-3,4-dihydro-1H-spiro[naphthalene-2,3′-pyrrolidine]-6-carboxamide], the IC50 is not above 0.1 µM. Consider `CC(C)CN1CC[C@@]2(CCc3cc(C(=O)NO)ccc3C2)C1=O` [Compound I-160, (S)-N-hydroxy-1′-isobutyl-2′-oxo-3,4-dihydro-1H-spiro[naphthalene-2,3′-pyrrolidine]-6-carboxamide], for which the IC50 fell in the range of 0.1 to 0.5 µM. The figure for `CCN1CC[C@]2(CCc3cc(C(=O)NO)ccc3C2)C1=O` [Compound I-161, (R)-1′-ethyl-N-hydroxy-2′-oxo-3,4-dihydro-1H-spiro[naphthalene-2,3′-pyrrolidine]-6-carboxamide] is not above 0.1 µM. As to `CCN1CC[C@@]2(CCc3cc(C(=O)NO)ccc3C2)C1=O` [Compound I-162, (S)-1′-ethyl-N-hydroxy-2′-oxo-3,4-dihydro-H-spiro[naphthalene-2,3′-pyrrolidine]-6-carboxamide], the IC50 was not above 0.1 µM.

For the origin of these results see patent publication US9630922B2, “3-spiro-7-hydroxamic acid tetralins as HDAC inhibitors” (Forma Therapeutics, Inc., priority 2015, dated 2017).
